# Data taken from patent US11957759B1, “Rapidly accelerated fibrosarcoma (RAF) degrading compounds and associated methods of use” (Arvinas Operations, Inc., priority 2022, dated 2024).
# Experiments:
# B-RAF V600E = target: T1, B-RAF V600E (Homo sapiens, UniProt P15056, V600E); experiment: Target protein degradation, assay C: T-Rex 293 cells, HA-BRAF_V600E, 384 well format; type: cell-based; details: T-Rex 293 HA-BRAF_V600E cells, 24 hours, Examples 83-269; for DC50: Assay C; for Dmax: T-REx-293, Assay C
# T1 construct: expressed in transfected cells; host or cells: T-Rex 293 cells (Invitrogen #R71007)
# T1 sequence (P15056 whole entry V600E): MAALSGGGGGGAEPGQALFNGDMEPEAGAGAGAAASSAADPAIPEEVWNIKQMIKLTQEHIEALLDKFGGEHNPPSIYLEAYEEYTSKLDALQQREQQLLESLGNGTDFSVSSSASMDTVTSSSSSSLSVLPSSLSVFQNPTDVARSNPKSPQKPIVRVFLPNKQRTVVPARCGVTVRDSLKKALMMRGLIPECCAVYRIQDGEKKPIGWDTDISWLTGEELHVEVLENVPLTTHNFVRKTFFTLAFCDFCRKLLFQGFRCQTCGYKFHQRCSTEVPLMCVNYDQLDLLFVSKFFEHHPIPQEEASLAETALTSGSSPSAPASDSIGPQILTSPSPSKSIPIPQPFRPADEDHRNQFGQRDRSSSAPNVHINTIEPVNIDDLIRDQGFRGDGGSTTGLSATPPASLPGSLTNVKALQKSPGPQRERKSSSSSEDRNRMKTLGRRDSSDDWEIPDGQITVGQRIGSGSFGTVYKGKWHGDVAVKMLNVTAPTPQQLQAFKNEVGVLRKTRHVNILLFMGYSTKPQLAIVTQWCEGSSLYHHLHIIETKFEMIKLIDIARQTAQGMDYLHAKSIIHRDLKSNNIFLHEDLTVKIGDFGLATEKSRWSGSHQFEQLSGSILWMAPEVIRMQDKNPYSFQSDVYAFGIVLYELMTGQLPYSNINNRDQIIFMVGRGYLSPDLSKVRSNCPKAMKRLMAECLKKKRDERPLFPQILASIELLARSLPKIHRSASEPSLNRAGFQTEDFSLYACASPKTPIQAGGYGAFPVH
# How it was run: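 After 24 h exposure to an 11-point 1:3 series (300 nM–5 pM, 0.5% DMSO), fixed T-Rex 293 cells carrying HA-BRAF V600E (induced with 1 ng/mL doxycycline) were stained anti-HA and imaged. DC50 and Dmax were derived from BRAF intensity relative to control, and cytotoxicity from nuclear counts.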
# B-RAF G466V = target: T2, B-RAF G466V (Homo sapiens, UniProt P15056, G466V); experiment: Target protein degradation, assay D: T-Rex 293 cells, HA-BRAF_G466V, 384 well format; type: cell-based; details: T-Rex 293 HA-BRAF_G466V cells, 24 hours, Examples 83-269; for DC50: Assay D; for Dmax: T-REx-293, Assay D
# T2 construct: expressed in transfected cells; host or cells: T-Rex 293 cells (Invitrogen #R71007)
# T2 sequence (P15056 whole entry G466V): as the sequence (P15056 whole entry V600E) above, with G466V, E600V counted along it
# How it was run: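 Degradation measured by high-content imaging of anti-HA immunofluorescence in fixed T-Rex 293 cells carrying inducible HA-BRAF G466V (1 ng/mL doxycycline), after 24 h PROTAC exposure at 37 °C over 300 nM–5 pM (1:3, 11 points, 0.5% DMSO). Outputs DC50 and Dmax as % of control; nuclei counts against DMSO wells gauge toxicity.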
structure (smiles),measurement,setting,value
"N#Cc1c(NS(=O)(=O)N2CC[C@@H](F)C2)ccc(F)c1Oc1ccc2ncn(-c3ccc(N4CCN(CC5CCN(c6ccc7c(c6)CN(C6CCC(=O)NC6=O)C7=O)CC5)CC4)nn3)c(=O)c2c1 (stereo partly drawn) [Example 92, (3R)-N-{2-cyano-3-[(3-{6-[4-({1-[2-(2,6-dioxopiperidin-3-yl)-1-oxo-2,3-dihydro-1H-isoindol-5-yl]piperidin-4-yl}methyl)piperazin-1-yl]pyridazin-3-yl}-4-oxo-3,4-dihydroquinazolin-6-yl)oxy]-4-fluorophenyl}-3-fluoropyrrolidine-1-sulfonamide]",DC50,B-RAF V600E,0.05 to 0.5 µM
same,Dmax,B-RAF V600E,≤ 35%
same,DC50,B-RAF G466V,0.01 to 0.03 µM
same,Dmax,B-RAF G466V,≤ 35%
"C[C@H]1CN(CC2CCN(c3ccc4c(c3)CN([C@H]3CCC(=O)NC3=O)C4=O)CC2)CCN1c1ccc(-n2cnc3ccc(Oc4c(F)ccc(NS(=O)(=O)N5CC[C@@H](F)C5)c4C#N)cc3c2=O)cc1 [Example 84, (3R)-N-{2-cyano-3-[(3-(4-[(2S)-4-[(1-{2-[(3S)-2,6-dioxopiperidin-3-yl]-1-oxo-2,3-dihydro-1H-isoindol-5-yl}piperidin-4-yl)methyl]-2-methylpiperazin-1-yl]phenyl}-4-oxo-3,4-dihydroquinazolin-6-yl)oxy]-4-fluorophenyl}-3-fluoropyrrolidine-1-sulfonamide]",DC50,B-RAF V600E,0.005 to 0.05 µM
same,Dmax,B-RAF V600E,35 to 70%
same,DC50,B-RAF G466V,≤ 0.001 µM
same,Dmax,B-RAF G466V,35 to 70%
N#Cc1c(NS(=O)(=O)N2CC[C@@H](F)C2)ccc(F)c1Oc1ccc2ncn(-c3ccc(N4CC(CN5CC(c6ccc7c(c6)CN([C@H]6CCC(=O)NC6=O)C7=O)C5)C4)cc3)c(=O)c2c1 [Example 204],DC50,B-RAF V600E,0.05 to 0.5 µM
same,Dmax,B-RAF V600E,35 to 70%
same,DC50,B-RAF G466V,0.001 to 0.01 µM
same,Dmax,B-RAF G466V,≤ 35%
"N#Cc1c(NS(=O)(=O)N2CC[C@@H](F)C2)ccc(F)c1Oc1ccc2ncn(-c3ccc(N4CC5(CC(CN6CCC(c7ccc8c(c7)CN(C7CCC(=O)NC7=O)C8=O)CC6)C5)C4)cc3)c(=O)c2c1 (stereo partly drawn) [Example 190, (3R)-N-{2-cyano-3-[(3-(4-[6-({4-[2-(2,6-dioxopiperidin-3-yl)-1-oxo-2,3-dihydro-1H-isoindol-5-yl]piperidin-1-yl}methyl)-2-azaspiro[3.3]heptan-2-yl]phenyl}-4-oxo-3,4-dihydroquinazolin-6-yl)oxy]-4-fluorophenyl}-3-fluoropyrrolidine-1-sulfonamide]",DC50,B-RAF V600E,0.05 to 0.5 µM
same,Dmax,B-RAF V600E,35 to 70%
same,DC50,B-RAF G466V,0.001 to 0.01 µM
same,Dmax,B-RAF G466V,35 to 70%
"N#Cc1c(NS(=O)(=O)N2CC[C@@H](F)C2)ccc(F)c1Oc1ccc2ncn(-c3cnc(N4CC5(CN(CC6CCN(c7cccc8c7C(=O)N(C7CCC(=O)NC7=O)C8=O)CC6)C5)C4)nc3)c(=O)c2c1 (stereo partly drawn) [Example 154, (3R)-N-{2-cyano-3-[(3-(2-[6-({1-[2-(2,6-dioxopiperidin-3-yl)-1,3-dioxo-2,3-dihydro-1H-isoindol-4-yl]piperidin-4-yl}methyl)-2,6-diazaspiro[3.3]heptan-2-yl]pyrimidin-5-yl}-4-oxo-3,4-dihydroquinazolin-6-yl)oxy]-4-fluorophenyl}-3-fluoropyrrolidine-1-sulfonamide]",DC50,B-RAF V600E,0.05 to 0.5 µM
same,Dmax,B-RAF V600E,≤ 35%
same,DC50,B-RAF G466V,0.01 to 0.03 µM
same,Dmax,B-RAF G466V,≤ 35%
"CCN(C)S(=O)(=O)Nc1ccc(F)c(Oc2ccc3ncn(-c4ccc(N5CCN(CC6CCN(c7ccc8c(c7)CN(C7CCC(=O)NC7=O)C8=O)CC6)CC5)cc4)c(=O)c3c2)c1C#N (stereo not shown) [Example 109, 2-[(3-{4-[4-({1-[2-(2,6-dioxopiperidin-3-yl)-1-oxo-2,3-dihydro-1H-isoindol-5-yl]piperidin-4-yl}methyl)piperazin-1-yl]phenyl}-4-oxo-3,4-dihydroquinazolin-6-yl)oxy]-6-{[ethyl(methyl)sulfamoyl]amino}-3-fluorobenzonitrile]",DC50,B-RAF V600E,0.05 to 0.5 µM
same,Dmax,B-RAF V600E,35 to 70%
same,DC50,B-RAF G466V,0.001 to 0.01 µM
same,Dmax,B-RAF G466V,35 to 70%
"O=C1CCC(N2Cc3cc(N4CCC(CN5CCN(c6ccc(-n7cnc8ccc(Oc9c(F)ccc(NS(=O)(=O)N%10CC[C@@H](F)C%10)c9Cl)cc8c7=O)cc6)CC5)CC4)ccc3C2=O)C(=O)N1 (stereo partly drawn) [Example 199, (3R)-N-{2-chloro-3-[(3-{4-[4-({1-[2-(2,6-dioxopiperidin-3-yl)-1-oxo-2,3-dihydro-1H-isoindol-5-yl]piperidin-4-yl}methyl)piperazin-1-yl]phenyl}-4-oxo-3,4-dihydroquinazolin-6-yl)oxy]-4-fluorophenyl}-3-fluoropyrrolidine-1-sulfonamide]",DC50,B-RAF V600E,0.05 to 0.5 µM
same,Dmax,B-RAF V600E,35 to 70%
same,DC50,B-RAF G466V,0.001 to 0.01 µM
same,Dmax,B-RAF G466V,35 to 70%
"N#Cc1c(NS(=O)(=O)N2CC[C@@H](F)C2)ccc(F)c1Oc1ccc2ncn(-c3ccc(N4CCC(CN5CCC(c6ccc([C@H]7CCC(=O)NC7=O)cc6F)CC5)CC4)cc3)c(=O)c2c1 [Example 187, (3R)-N-(2-cyano-3-{[3-(4-{4-[(4-{4-[(3R)-2,6-dioxopiperidin-3-yl]-2-fluorophenyl}piperidin-1-yl)methyl]piperidin-1-yl}phenyl)-4-oxo-3,4-dihydroquinazolin-6-yl]oxy}-4-fluorophenyl)-3-fluoropyrrolidine-1-sulfonamide]",DC50,B-RAF V600E,0.05 to 0.5 µM
same,Dmax,B-RAF V600E,≥ 70%
same,DC50,B-RAF G466V,0.001 to 0.01 µM
same,Dmax,B-RAF G466V,≤ 35%
"N#Cc1c(NS(=O)(=O)N2CC[C@@H](F)C2)ccc(F)c1Oc1ccc2ncn(-c3ccc(N4CCC(CN5CC(c6ccc([C@H]7CCC(=O)NC7=O)cc6F)C5)CC4)cc3)c(=O)c2c1 [Example 183, (3R)-N-(2-cyano-3-{[3-(4-{4-[(3-{4-[(3R)-2,6-dioxopiperidin-3-yl]-2-fluorophenyl}azetidin-1-yl)methyl]piperidin-1-yl}phenyl)-4-oxo-3,4-dihydroquinazolin-6-yl]oxy}-4-fluorophenyl)-3-fluoropyrrolidine-1-sulfonamide]",DC50,B-RAF V600E,0.05 to 0.5 µM
same,Dmax,B-RAF V600E,35 to 70%
same,DC50,B-RAF G466V,> 0.03 µM
"N#Cc1c(NS(=O)(=O)N2CC[C@@H](F)C2)ccc(F)c1Oc1ccc2ncn(-c3ccc(N4CCN([C@H]5C[C@H](OC6CCN(c7ccc8c(c7)CN(C7CCC(=O)NC7=O)C8=O)CC6)C5)CC4)cc3)c(=O)c2c1 (stereo partly drawn) [Example 251, (3R)-N-(2-cyano-4-fluoro-3-{[4-oxo-3-(4-(4-[(1r,3r)-3-({1-[2-(2,6-dioxopiperidin-3-yl)-1-oxo-2,3-dihydro-1H-isoindol-5-yl]piperidin-4-yl}oxy)cyclobutyl]piperazin-1-yl}phenyl)-3,4-dihydroquinazolin-6-yl]oxy}phenyl)-3-fluoropyrrolidine-1-sulfonamide]",DC50,B-RAF V600E,0.05 to 0.5 µM
same,Dmax,B-RAF V600E,35 to 70%
same,DC50,B-RAF G466V,0.001 to 0.01 µM
same,Dmax,B-RAF G466V,35 to 70%
"N#Cc1c(NS(=O)(=O)N2CC[C@@H](F)C2)ccc(F)c1Oc1ccc2ncn(-c3ccc(N4CCC(CN5CC6(CCC(c7ccc8c(c7)CN([C@H]7CCC(=O)NC7=O)C8=O)CC6)C5)CC4)cc3)c(=O)c2c1 [Example 219, (3R)-N-(2-cyano-3-{[3-(4-{4-[(7-{2-[(3S)-2,6-dioxopiperidin-3-yl]-1-oxo-2,3-dihydro-1H-isoindol-5-yl}-2-azaspiro[3.5]nonan-2-yl)methyl]piperidin-1-yl}phenyl)-4-oxo-3,4-dihydroquinazolin-6-yl]oxy}-4-fluorophenyl)-3-fluoropyrrolidine-1-sulfonamide]",DC50,B-RAF V600E,0.05 to 0.5 µM
same,Dmax,B-RAF V600E,35 to 70%
same,DC50,B-RAF G466V,0.001 to 0.01 µM
same,Dmax,B-RAF G466V,35 to 70%
"N#Cc1c(NS(=O)(=O)N2CC[C@@H](F)C2)ccc(F)c1Oc1ccc2ncn(-c3cccc(C4CCN(CC5CCN(c6ccc7c(c6)CN([C@H]6CCC(=O)NC6=O)C7=O)CC5)C4)c3)c(=O)c2c1 (single isomer, unassigned) [Example 257, (3R)-N-{2-cyano-3-[(3-{3-[(3R*)-1-[(1-{2-[(3S)-2,6-dioxopiperidin-3-yl]-1-oxo-2,3-dihydro-1H-isoindol-5-yl}piperidin-4-yl)methyl]pyrrolidin-3-yl]phenyl}-4-oxo-3,4-dihydroquinazolin-6-yl)oxy]-4-fluorophenyl}-3-fluoropyrrolidine-1-sulfonamide]",DC50,B-RAF V600E,0.05 to 0.5 µM
same,Dmax,B-RAF V600E,35 to 70%
same,DC50,B-RAF G466V,0.001 to 0.01 µM
same,Dmax,B-RAF G466V,35 to 70%
"N#Cc1c(NS(=O)(=O)N2CC[C@@H](F)C2)ccc(F)c1Oc1ccc2ncn(-c3ccc(N4CC(CN5CCN(C6CCN(c7ccc8c(c7)CN(C7CCC(=O)NC7=O)C8=O)CC6)CC5)C4)cc3)c(=O)c2c1 (single isomer, unassigned) [Example 198, (3R)-N-[2-cyano-3-({3-[4-(3-{[4-(1-{2-[(3R*)-2,6-dioxopiperidin-3-yl]-1-oxo-2,3-dihydro-1H-isoindol-5-yl}piperidin-4-yl)piperazin-1-yl]methyl}azetidin-1-yl)phenyl]-4-oxo-3,4-dihydroquinazolin-6-yl}oxy)-4-fluorophenyl]-3-fluoropyrrolidine-1-sulfonamide]",DC50,B-RAF V600E,0.05 to 0.5 µM
same,DC50,B-RAF G466V,0.001 to 0.01 µM
"N#Cc1c(NS(=O)(=O)N2CC[C@@H](F)C2)ccc(F)c1Oc1ccc2ncn(-c3ccc(N4CCN(CC5CCN(c6ccc(F)c(C(=O)NC7CCC(=O)NC7=O)c6)CC5)CC4)nc3)c(=O)c2c1 (stereo partly drawn) [Example 140, 5-(4-{[4-(5-{6-[2-cyano-6-fluoro-3-({[(3R)-3-fluoropyrrolidin-1-yl]sulfonyl}amino)phenoxy]-4-oxo-3,4-dihydroquinazolin-3-yl}pyridin-2-yl)piperazin-1-yl]methyl}piperidin-1-yl)-N-(2,6-dioxopiperidin-3-yl)-2-fluorobenzamide]",DC50,B-RAF V600E,0.05 to 0.5 µM
same,Dmax,B-RAF V600E,≤ 35%
same,DC50,B-RAF G466V,> 0.03 µM
